Laboratory results reported in US20190209514A1, “Treatment of Bladder Cancer by Local Administration of Taxane Particles” (CRITITECH, INC., priority 2018, published 2019).
Several values for one entry are separate records, joined by “and”; a condition that tells them apart may be missing. Identical values can stand only once. Entries after “also recorded” stand apart in the source; their conditions may differ. Marks after values point to notes of the source that are not given here.

What was measured:
[1] = Particle size analysis (light obscuration / laser diffraction); type: physicochemical
Source text: The particle size of the taxane particles can be determined by a particle size analyzer instrument and the measurement is expressed as the mean diameter based on a number distribution (number). A suitable particle size analyzer instrument is one which employs the analytical technique of light obscuration, also referred to as photozone or single particle optical sensing (SPOS). A suitable light obscuration particle size analyzer instrument is the ACCUSIZER, such as the ACCUSIZER 780 SIS, available from Particle Sizing Systems, Port Richey, Fla. Another suitable particle size analyzer instrument is one which employs laser diffraction, such as the Shimadzu SALD-7101.
Particle size was analyzed by both light obscuration and laser diffraction methods. An Particle Sizing Systems AccuSizer 780 SIS system was used for the light obscuration method and Shimadzu SALD-7101 was used for the laser diffraction method.
The vials were vortexed for approximately 10 seconds and then sonicated in a sonic bath approximately 1 minute.
The vial was vortexed for approximately 10 seconds and then sonicated in a sonic bath for approximately 2 minutes. This suspension was used for laser diffraction analysis. Unused suspension was poured into a 125 mL particle-free plastic bottle, which was then filled to approximately 100 mL with filtered dispersant. The suspension was vortex for approximately 10 seconds and then sonicated in the sonic bath for approximately 2 minutes. This diluted suspension was used for light obscuration analysis.
A background test was first performed prior to analyzing particles on the AccuSizer 780 SIS. A new particle-free plastic bottle was filled with blank suspension solution by pumping from a reservoir, using a peristaltic pump, through a 0.22 μm Millipore filter and into the bottle. A background analysis was run to ensure the particle/mL count was below 100 particles/mL. […] Once the analysis was completed, the background data was removed and any measurement with less than four counts was removed.
To analyze particles on SALD-7101 using a batch cell, the analysis was started by choosing Manual Measurement. The refractive index was set as 1.5 to 1.7. The batch cell was filled with filtered dispersant just past the etched line. The blank measurement was ran. […] The measurements were executed, and the resulting graph with the highest level of confidence was selected; background was automatically accounted for.

[2] = Docetaxel dissolution study, methanol/water 15/85, USP Apparatus II; type: physicochemical; conditions: for Docetaxel Dissolution time course: methanol/water 15/85
Experimental: The procedures used to determine the dissolution rates are as follows. […] Beads were transferred to a stainless steel mesh container and placed in the dissolution bath containing methanol/water 50/50 (v/v) media at 37° C., pH 7, and a USP Apparatus II (Paddle), operating at 75 rpm. At 10, 20, 30, 60, and 90 minutes, a 5 mL aliquot was removed, filtered through a 0.22 μm filter and analyzed on a UV/VIS spectrophotometer at 227 nm. Absorbance values of the samples were compared to those of standard solutions prepared in dissolution media to determine the amount of material dissolved. […] At 5, 15, 30, 60, 120 and 225 minutes, a 5 mL aliquot was removed, filtered through a 0.22 μm filter, and analyzed on a UV/VIS spectrophotometer at 232 nm. Absorbance values of the samples were compared to those of standard solutions prepared in dissolution media to determine the amount of material dissolved.
At 5, 15, 30, 60, 120 and 225 minutes, a 5 mL aliquot was removed, filtered through a 0.22 μm filter, and analyzed on a UV/VIS spectrophotometer at 232 nm. Absorbance values of the samples were compared to those of standard solutions prepared in dissolution media to determine the amount of material dissolved.

[3] = system: UM-UC-3 bladder cancer cell line (ATCC-CRL-1749) tumors; experiment: Xenograft study: histology (H&E) and immunohistochemistry of tumor site tissue; type: in vivo, Hsd:Athymic Nude-Foxn1nu nude mice
[4] = IV docetaxel 3 cycles; of 7 tumors measured; day of death or euthanasia
[5] = system: UM-UC-3 bladder cancer cell line (ATCC-CRL-1749) tumors; experiment: Human bladder cancer (UM-UC-3) mouse xenograft study, tumor volume; type: in vivo, Hsd:Athymic Nude-Foxn1nu nude mice
Experimental: Tumor volume was determined with calipers. […] Animals were weighed 2×/week.
At day 18 after tumor implant, when average tumor size was between 50-325 mm^3, animals were sorted into five groups with equal average tumor sizes and were treated as shown in Table 8 below.
The second treatments (2nd cycle) occurred 7 days following first treatment (1st cycle) and third treatments (3rd cycle) occurred 14 days following the first treatment. The docetaxel solution IV was administered via the tail vein.
The test formulations were prepared as follows: • Vehicle (Control): Diluted 1 ml of the 1% Polysorbate 80/8% Ethanol in normal saline (0.9% Sodium Chloride for Injection) reconstitution solution with 1.5 mL of normal saline (0.9% Sodium Chloride for Injection, USP). […] Vigorously hand shook the vial with inversions for 1 minute. […] Vortexed to mix.
Tumor volumes were determined 2×/week for the duration of the study (61 days). The results of the study are shown in FIG. 4, FIG. 5, FIG. 6, FIG. 7, FIG. 8, FIG. 9, FIG. 10, FIG. 11, FIG. 12 & FIG. 13. […] These observations are also reflected in FIG. 5, FIG. 6, FIG. 7, FIG. 8, FIG. 9, FIG. 12 & FIG. 13.

[6] = Paclitaxel dissolution study, methanol/water 50/50, USP Apparatus II; type: physicochemical; conditions: methanol/water 50/50 (v/v), 37° C., pH 7, paddle 75 rpm
Experimental: Beads were transferred to a stainless steel mesh container and placed in the dissolution bath containing methanol/water 50/50 (v/v) media at 37° C., pH 7, and a USP Apparatus II (Paddle), operating at 75 rpm. […] Absorbance values of the samples were compared to those of standard solutions prepared in dissolution media to determine the amount of material dissolved. […] Absorbance values of the samples were compared to those of standard solutions prepared in dissolution media to determine the amount of material dissolved.
Beads were transferred to a stainless steel mesh container and placed in the dissolution bath containing methanol/water 50/50 (v/v) media at 37° C., pH 7, and a USP Apparatus II (Paddle), operating at 75 rpm. At 10, 20, 30, 60, and 90 minutes, a 5 mL aliquot was removed, filtered through a 0.22 μm filter and analyzed on a U(V/V)is spectrophotometer at 227 nm. Absorbance values of the samples were compared to those of standard solutions prepared in dissolution media to determine the amount of material dissolved.

[7] = Bulk density (not tapped); type: physicochemical
Experimental: As used herein, the “specific surface area” (SSA) is the total surface area of the taxane particle per unit of taxane mass as measured by the Brunauer-Emmett-Teller (“BET”) isotherm by the following method: a known mass between 200 and 300 mg of the analyte is added to a 30 mL sample tube. […] The automated test is then carried out using the BETWIN® software package and the surface area of each sample is subsequently calculated. As will be understood by those of skill in the art, the “taxane particles” can include both agglomerated taxane particles and non-agglomerated taxane particles; since the SSA is determined on a per gram basis it takes into account both the larger agglomerated and smaller non-agglomerated taxane particles in the composition. The agglomerated taxane particles are defined herein as individual taxane particles that are formed by the agglomeration of smaller particles which fuse together forming the larger individual taxane particles, all of which occurs during the processing of the taxane particles. The BET specific surface area test procedure is a compendial method included in both the United States Pharmaceopeia and the European Pharmaceopeia. […]
The mass of the drug was measured to a nearest 0.1 mg, the volume was determined to the nearest 0.1 mL and the density calculated.

[8] = BET specific surface area (SSA); type: physicochemical
Experimental: As used herein, the “specific surface area” (SSA) is the total surface area of the taxane particle per unit of taxane mass as measured by the Brunauer-Emmett-Teller (“BET”) isotherm by the following method: a known mass between 200 and 300 mg of the analyte is added to a 30 mL sample tube. […] The automated test is then carried out using the BETWIN® software package and the surface area of each sample is subsequently calculated. As will be understood by those of skill in the art, the “taxane particles” can include both agglomerated taxane particles and non-agglomerated taxane particles; since the SSA is determined on a per gram basis it takes into account both the larger agglomerated and smaller non-agglomerated taxane particles in the composition. The agglomerated taxane particles are defined herein as individual taxane particles that are formed by the agglomeration of smaller particles which fuse together forming the larger individual taxane particles, all of which occurs during the processing of the taxane particles. […]
A known mass between 200 and 300 mg of the analyte was added to a 30 mL sample tube. […] The automated test was then carried out using the BETWIN® software package and the surface area of each sample was subsequently calculated.

[9] = IV Docetaxel 3 cycles, 2 animals

CC(=O)O[C@@]12CO[C@@H]1C[C@H](O)[C@@]1(C)C(=O)[C@H](O)C3=C(C)[C@@H](OC(=O)[C@H](O)[C@@H](NC(=O)OC(C)(C)C)c4ccccc4)C[C@@](O)([C@@H](OC(=O)c4ccccc4)[C@H]21)C3(C)C [Docetaxel Raw Material, docetaxel]
Number Mean (um) [1]: 1.58 um
Volume Mean (um) [1]: 5.05 um
Docetaxel Dissolution time course ([2]; 0 minutes): 0.0%
Docetaxel Dissolution time course ([2]; 5 minutes): 3.2%
Docetaxel Dissolution time course ([2]; 15 minutes): 6.9%
Docetaxel Dissolution time course ([2]; 30 minutes): 11.2%
Docetaxel Dissolution time course ([2]; 60 minutes): 16.4%
Docetaxel Dissolution time course ([2]; 120 minutes): 22.4%
Docetaxel Dissolution time course ([2]; 225 minutes): 26.8%
Dissolution (30 min) ([2]; docetaxel, methanol/water 15/85 (v/v), 37° C., pH 7, paddle 75 rpm, 30 min): 11%

CC(=O)O[C@@]12CO[C@@H]1C[C@H](O)[C@@]1(C)C(=O)[C@H](O)C3=C(C)[C@@H](OC(=O)[C@H](O)[C@@H](NC(=O)OC(C)(C)C)c4ccccc4)C[C@@](O)([C@@H](OC(=O)c4ccccc4)[C@H]21)C3(C)C [Docetaxel, docetaxel]
histology general observations (H&E) ([3]; Docetaxel Solution IV 3 cycles): many viable appearing tumor masses with some macrophage and occasional lymphocytic response along with some tumor necrosis
Maximum tumor size on slide / size of viable nodules (mm), per animal ([3]; IV Docetaxel 3 cycles (cases B1, B3)): 11 mm and 15 mm
Macrophage infiltrate density (CD68): animals graded Mild [3, 9]: 2
Maximum size of viable invasive carcinoma on the slide: animals with >10 mm [3, 9]: 2*
Percentage of tumor showing necrosis: animals with 11-50% [3, 9]: 1
Percentage of tumor showing necrosis: animals with 50-90% [3, 9]: 1
tumors with docetaxel levels above the limit of quantitation (1 ng/g) [4]: 1
tumor volume ([5]; Docetaxel Solution 30 mg/kg IV, 3 weekly cycles, to Day 61): Tumor volumes decreased initially; also recorded: subsequently increased; also recorded: somewhat effective at treating small tumors, but not very effective in treating large tumors
Necropsy volume (mm^3), per animal ([5]; IV Docetaxel 3 cycles (B1, B3)): 2872 mm^3 and 1652 mm^3

CC(=O)O[C@H]1C(=O)[C@@]2(C)[C@H]([C@H](OC(=O)c3ccccc3)[C@]3(O)C[C@H](OC(=O)[C@H](O)[C@@H](NC(=O)c4ccccc4)c4ccccc4)C(C)=C1C3(C)C)[C@]1(OC(C)=O)CO[C@@H]1C[C@@H]2O [Paclitaxel Raw Material, paclitaxel]
Dissolution (30 min) [6]: 18%
Number Mean (um) [1]: 1.16 um
Volume Mean (um) [1]: 1.29 um
Bulk Density [7]: 0.26 g/mL
Surface Area (m^2/g) ([8]; BET): 10.4 m^2/g
BET surface area ([8]; Example 1 results text): 7.25 m^2/g
